Test [1] has as its system Ub. Briefly: Surface plasmon resonance, immobilized Sc_ENTH and free mono-Ub. The format is binding. To be noted: mutant complexes; Ub concentrations too low for accurate Kd, high standard errors. On the procedure: Surface plasmon resonance: Purified His6-MBP-ENTH or mutants were immobilized on an Ni^+2 chip at a density of ˜800U. Untagged Ub (analyte) was injected at a flow rate of […] in 150 mM NaCl, 10 mM HEPES pH 7.0 and 0.010% poly-sorbate 20 at 24° C.; 500 mM imidazole was used for surface regeneration. To avoid immobilization of aggregated analyte the purified Ub was chromatographed by gel filtration and briefly sonicated immediately before SPR experiments. Data were processed with BioEvaluation and fitting carried out as a single-site-binding model with OriginLab. Standard errors derived from at least three samples.
Finally, to biophysically corroborate the data and to quantify the affinity of the ENTH:Ub complex, Surface Plasmon Resonance (SPR) measurements were performed with immobilized Sc_ENTH and free mono-Ub (FIG. 5I). […] Together, the correlation between the SPR measurements, the genetic and biochemical data provides a rough estimation for the sensitivity of the selection system in monitoring Ub binding.

Test [2] concerns the target T1, Siah2 (Homo sapiens, UniProt O43255).
T1 construct: expressed in transfected cells; host or cells: E. coli W3110
T1 sequence (O43255 1-324): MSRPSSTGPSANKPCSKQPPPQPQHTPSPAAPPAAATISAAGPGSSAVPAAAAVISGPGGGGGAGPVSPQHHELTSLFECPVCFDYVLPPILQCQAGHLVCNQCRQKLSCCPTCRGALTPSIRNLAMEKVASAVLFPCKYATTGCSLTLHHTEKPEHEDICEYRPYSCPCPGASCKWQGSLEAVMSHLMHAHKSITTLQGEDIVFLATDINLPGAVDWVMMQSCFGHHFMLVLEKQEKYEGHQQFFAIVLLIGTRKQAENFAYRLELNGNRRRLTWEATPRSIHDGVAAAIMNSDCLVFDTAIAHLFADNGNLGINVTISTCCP
The test can be described thus: Ubiquitination-dependent E. coli growth assay, bacteria addicted to Siah2 self-ubiquitination. To be noted: only under the addictive conditions (selective media, TRIM); FIG. 2B right. The test is classed as cell-based. The protocol:
Ubiquitination-dependent E. coli growth assay: E. coliW3110 (from Ezra Yagil laboratory at TAU) were co-transformed with the pND-Ub and the pCD-Sub plasmids and plated on LB agar supplemented with 34 μg/ml kanamycin and 25 μg/ml streptomycin. 5 ml of liquid LB medium supplemented with the same antibiotic concentrations were inoculated with a single colony and left to grow overnight at 37° C. The culture was harvested and washed twice with 5 ml of minimal Davis medium. The optical density (OD600.) was measured and adjusted to 0.2. Two and a half microliters of the diluted cultures from each sample were spotted on agar Davis plates containing 0, 0.5, 5, 10, 20 or 50 μg/ml of TRIM. The plates were incubated for 2-3 days at 30° C. and photographed with a UV camera in identical conditions. Each spotting assay was repeated at least 6 times.
Most E3-ligases undergo self-ubiquitination^20. The developed selection system thus provides a straightforward tool for their identification and characterization as self-ubiquitination is predicted to confer antibiotic resistance. Yeast Rsp5 and human Siah2, representatives of the HECT and the RING ligases, respectively, were fused to cDHFR. Growth phenotypes were observed under non-permissive conditions, only when all the required ubiquitination components were co-expressed (FIGS. 2A-B). […]

The target of test [3] is T2, E1 (Triticum aestivum, UniProt P20973).
T2 construct: expressed in transfected cells; host or cells: E. coli
T2 sequence (P20973 1-1051): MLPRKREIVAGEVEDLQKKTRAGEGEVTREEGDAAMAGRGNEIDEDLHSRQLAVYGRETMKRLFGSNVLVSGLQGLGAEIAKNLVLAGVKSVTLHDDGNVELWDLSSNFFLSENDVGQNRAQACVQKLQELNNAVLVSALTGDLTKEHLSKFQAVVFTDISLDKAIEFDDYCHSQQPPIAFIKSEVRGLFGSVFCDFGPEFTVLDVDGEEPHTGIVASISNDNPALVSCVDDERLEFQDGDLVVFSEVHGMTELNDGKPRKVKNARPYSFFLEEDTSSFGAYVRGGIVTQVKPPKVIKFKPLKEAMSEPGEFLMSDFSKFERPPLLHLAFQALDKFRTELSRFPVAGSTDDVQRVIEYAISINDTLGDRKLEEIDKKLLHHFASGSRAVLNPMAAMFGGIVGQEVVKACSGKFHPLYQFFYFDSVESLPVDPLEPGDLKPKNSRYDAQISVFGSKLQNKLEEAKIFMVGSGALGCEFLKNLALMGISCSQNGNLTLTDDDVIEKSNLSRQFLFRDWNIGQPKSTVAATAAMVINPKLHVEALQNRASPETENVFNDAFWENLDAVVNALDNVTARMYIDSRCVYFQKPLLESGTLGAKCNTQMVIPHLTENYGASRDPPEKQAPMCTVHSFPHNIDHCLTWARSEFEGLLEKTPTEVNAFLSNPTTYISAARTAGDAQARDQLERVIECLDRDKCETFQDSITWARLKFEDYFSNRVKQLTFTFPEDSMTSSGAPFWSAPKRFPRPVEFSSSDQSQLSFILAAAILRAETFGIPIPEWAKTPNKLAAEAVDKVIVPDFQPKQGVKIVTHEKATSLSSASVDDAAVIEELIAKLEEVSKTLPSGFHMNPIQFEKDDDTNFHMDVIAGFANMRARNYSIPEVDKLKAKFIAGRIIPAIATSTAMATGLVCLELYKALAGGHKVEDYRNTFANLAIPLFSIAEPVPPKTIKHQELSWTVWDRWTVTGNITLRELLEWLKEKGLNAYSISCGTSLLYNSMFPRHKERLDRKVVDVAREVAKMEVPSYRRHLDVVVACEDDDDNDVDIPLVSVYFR
Briefly: Selection experiments in solution growth media (96-well, TRIM with or without Pyr-41), Hrs dsUIM ubiquitination. The test is classed as cell-based. To be noted: 100 μM Pyr-41, with or without TRIM, n=9; FIG. 3D. On the procedure: Selection experiments in solution growth media: Overnight cultures in LB medium (supplemented with 30 μg/ml kanamycin and 25 μg/ml streptomycin) were harvested and re-suspended in Davis minimal medium. Diluted cells (OD600, 0.2) were grown at 30° C. in 96-well plates containing 0.2 ml Davis medium supplemented with 0, 1, 5, 7, 10 and 12 μg/ml TRIM and with or without 100 μM Pyr-41. Growth rates were monitored by measuring the optical density (OD595) using a microplate spectrophotometer. Doubling time was calculated for early logarithmic growth (OD595 between 0.02 and 0.2). All experiments were performed at least 9 times (n=9).
The selection system stabilizes the dynamic and weak UBD:Ub non-covalent interactions by forming a covalent bond between Ub and Ub-receptor (i.e. ubiquitination) in the bacteria. The present inventors assessed the ability of the system to sense low affinity UBD by tethering the double-sided UIM (dsUIM) of Hrs as substrate^27,28 (FIG. 3A). The structures of Hrs:STAM (also known as ESCRT-0 complex) and particularly its dsUIM:Ub complex, were determined and facilitated detailed molecular assessment^29,30. The E3-independent self-ubiquitination of most Ub-receptors and the promiscuous function of Ubc4/5 subfamily members aided in the analysis. […] Similarly, I44-patch mutant abolished bacterial growth.

Test [4] deals with Ub (Homo sapiens, UniProt P0CG47). To be noted: reference 26; read-out: affinity of VHS:Ub complex; cited from earlier work.

Consider 4 molecules from patent US10982252B2, “Bacterial systems for analyzing ubiquitylated polypeptides” (Technology Innovation Momentum Fund (Israel) Limited …, priority 2016, dated 2021).

“Ub R42E, R72E: R42E, R72E double mutant of ubiquitin”: the “estimated affinity, fold lower than that of the wild-type” value in test [1] is 2.6 fold.

With `CC1=CC(=O)c2ccccc2C1=O` [menadione], the “growth phenotype in the presence of menadione” value in test [2] was “growth arrest phenotype”. Consider `CCOC(=O)c1ccc(N2NC(=O)/C(=C/c3ccc([N+](=O)[O-])o3)C2=O)cc1` [PYR41], for which, in test [3], the “effect on bacterial growth (relative growth rates at log phase)” value is reported as “attenuates bacterial growth only in the non-permissive conditions”.

B1: Vps27: VHS domain of Vps27 in VHS:Ub complex (protein)
chain: IHSVDLSDEEKDSIYMFASLVEKMKSRPLNEILEDSKLQNLAQRVFASKARLNYALNDKAQKYNTLIEMNGKISEIMNIYDRLLEQQLQSINLSQQMEKKITGYTTVDISQWHRKEHFEAFQSVAQ
modifications: left off: small tags and cut ends
notes: VHS domain of Vps27 in VHS:Ub complex
Consider B1, for which, in test [4], the Kd is 1500 µM.
